Results on 11 compounds are retold here after patent US20210230213A1, “ARAMCHOL SALTS” (GALMED RESEARCH AND DEVELOPMENT LTD., priority 2013, published 2021).

Structures can show the parent of a compound that is named as a salt. Where two headings read alike, the source gives them in different places. Where only a bound is given, the exact number is not on record here.

Data set [1] in a line: Dynamic Vapour Sorption (DVS). The format is physicochemical. How it is done:
The samples was weighed in a glass pan, typically 20-30 mg, and equilibrated at 0% relative humidity (RH). After the material had dried, the RH was increased with 10% per step for 1 hour per increment, ending at […].
The software used for data collection was DVSWin v3.01 No Video. Data analysis was performed using DVS Standard Analysis Suite v6.3.0 (Standard).
After completion of sorption cycle, the material was dried. XRPD was performed before and after DVS.

Data set [2] can be described thus: In vivo permeability / PK after intrajejunal administration in cannulated rats (Example 7). Particulars: rat; for Cmax: 100 mg/kg (based on free acid) in PBS 30 mg/mL, plasma Aramchol (free acid); for Tmax: median. Details: species or system male Wistar rats. As for the experimental part: An in vivo permeability study of Aramchol salts was performed in male Wistar rats cannulated in the jugular vein and in the jejunum. Intestinal cannulation was performed in order to bypass protonation of Aramchol salts in acidic gastric pH. Aramchol salts solubilized in PBS (30 mg/mL) were administered to rats intestine (jejunum) in a dose of 100 mg/kg (based on free acid), via a cannula inserted into the proximal side of the jejunum. A suspension of Aramchol free acid (in PBS, 30 mg/mL) was administered via the same route and was used as control. Blood samples were withdrawn via a cannula inserted into jugular vein at pre-determined time points (pre-dose, 1 hr, 2 hr, 4 hr, 8 hr, 12 hr, 24 hr post dose). Plasma concentrations of Aramchol (free acid) were measured using a liquid chromatography-tandem mass spectrometry (LC-MS-MS) method by Analyst Bioanalytical Laboratories, Israel. All PK parameters were calculated using non-compartmental analysis. Only those plasma concentrations equal to or greater than the lower limit of quantitation (LOQ) (48.66 ng/mL) were used in the analysis. Plasma concentrations <LOQ that occurred from pre-dose to the first concentration ≥LOQ were treated as 0. Actual sampling times were used for all pharmacokinetic analyses. The following PK parameters were calculated: maximum plasma concentration (Cmax), time to Cmax (Tmax), area under the plasma concentration-time curve from time of administration until the last plasma concentration (AUC0-4), AUC/dose, elimination half-life (t½). Cmax and Tmax were taken directly from the data. Area under the curve from zero to the final sample with a concentration ≥LOQ. AUC0-4 was calculated using the linear trapezoidal method.

Data set [3] in a line: Fill weight of size 00 HPMC capsule. To be noted: hard HPMC capsule size 00, filled as is without tapping. The format is physicochemical. The source says:
Aramchol (free acid), and the three salts were filled as are, into hard HPMC (Hypromellose; Capsule size 00 (CapsCanada, ON, Canada) without taping, fill weight is presented in table 9.

A short description of data set [4]: Saturated solubility in buffer solutions and bio-relevant media at 37° C. (Example 6). The format is physicochemical. To be noted: 37° C.
A short description of data set [5]: physchem. Particulars: 50 °C, organic solvent or mixture.
A short description of data set [6]: Aqueous solubility at 20° C., shake-flask, stepwise water addition (Example 2). The format is physicochemical. Particulars: for solubility: water, 20 °C, thermodynamic from solid, 20° C. How it is done:
The Aramchol salts of the present invention were further assessed for their solubility in water. […] 5 mg of each salt was weighed. Water was added stepwise until a clear solution was obtained (Table 2, solubility in water). The pH of each solution was measured (Table 2, pH after solubility).

Setting [7] is: water, Aramchol free acid and base 1:1, 50° C.
Setting [8] is: RH raised from 0% in 10% steps to 95% RH, stepwise, reversible.
Where [9] appears, read: 100 mg/kg, mean ± standard error.

Turning to `CN(C)CCO` [Deanol], the “Dissolved (50 in g in 1) at 50° C.” value under setting [7] is “Yes”. The “salt remains in solution after cooling to 20° C.” value (from here on “salt remains in solution”) (water, cooled to 20° C.) is “yes”. For the same compound, the “Mass uptake (DVS)” value in data set [1] (setting [8]) is listed as 17.3% (stepwise; reversible).
As for “3β-arachidylamido-7α,12α-dihydroxy-5β-cholan-24-oic acid lysine salt [L-Lysine]”, the Cmax in data set [2] (mean ± standard error) is reported as 7294.2 ± 5463.0 (5) ng/mL. Moreover, in data set [2] (setting [9]), the “AUC(0-t)” value is 26460.3 ± 9415.5 (5) hr × ng/mL, the AUC/dose is 270.0 ± 99.0 (5) hr × ng × kg/mL × mg and the t1/2 is 5.2 ± 1.0 (5) hr. Further, the Tmax in data set [2] (100 mg/kg) was 2.0 (5) [2-4] hr. Further, under setting [7], the “Dissolved (50 in g in 1) at 50° C.” value was “No”. Also, in data set [3], the “fill weight of one 00 size capsule” value came to 0.33 gram. In data set [1] (setting [8]), the “Mass uptake (DVS)” value is 23.1% (stepwise, reversible).
Take `CCNCC` [Diethylamine]: the “Dissolved (50 in g in 1) at 50° C.” value under setting [7] is “Yes”. For the setting “water, cooled to 20° C.”, the “salt remains in solution” value is listed as “no”. The “Mass uptake (DVS)” value in data set [1] (setting [8]) is 14.8% (stepwise; reversible).
On to `c1ccc(CNCCNCc2ccccc2)cc1` [Benzathine], for which the “Dissolved (50 in g in 1) at 50° C.” value under setting [7] is reported as “No”.
Take Diethanolamine: under setting [7], the “Dissolved (50 in g in 1) at 50° C.” value is given as “Yes”. In addition, the “salt remains in solution” value (water, cooled to 20° C.) is “yes”. Also, the “Mass uptake (DVS)” value in data set [1] (setting [8]) is on record as 6.9% (stepwise; reversible).
As for `CCCCCCCCCCCCCCCCCCCC(=O)NC1CCC2(C)C(C1)CC(O)C1C2CC(O)C2(C)C(C(C)CCC(=O)O)CCC12.N` (stereo not drawn) [Ammonia], the “Dissolved (50 in g in 1) at 50° C.” value is reported as “No” and the “salt remains in solution” value was “no”. Moreover, in data set [1], the “Mass uptake (DVS)” value is recorded as 5.4% (stepwise; reversible).
Regarding L-Arginine, the “Dissolved (50 in g in 1) at 50° C.” value under setting [7] is “Yes”. In addition, the “salt remains in solution” value (water, cooled to 20° C.) is on record as “no”.
Regarding `NCCO` [Ethanolamine], the “Mass uptake (DVS)” value in data set [1] (setting [8]) was 13.2% (stepwise; reversible).
With Choline, the “Dissolved (50 in g in 1) at 50° C.” value is “Yes” and the “salt remains in solution” value was “yes”.
`CCCCCCCCCCCCCCCCCCCC(=O)N[C@H]1CC[C@@]2(C)[C@@H](C1)C[C@@H](O)[C@@H]1[C@@H]2C[C@H](O)[C@]2(C)[C@@H]([C@H](C)CCC(=O)O)CC[C@@H]12` [Tromethamine, 3β-arachidylamido-7α,12α-dihydroxy-5β-cholan-24-oic acid tromethamine salt] showed a Half-life in data set [2] (male, Wistar, plasma, 100 mg/kg, mean ± standard error) of 6.5 ± 2.4 h. Further, in data set [2] (male, Wistar, plasma, 100 mg/kg, mean ± standard error, read-out: AUC 0-t), the AUC(0-t) is 18600 ± 2280 ng·h/mL. Besides, the Tmax in data set [2] (male, Wistar, plasma, 100 mg/kg, read-out: Tmax) was determined as 2 h. Further, in data set [2] (male, Wistar, mean ± standard error, read-out: Cmax), the Cmax stood at 2250 ± 208 ng/mL. Moreover, the AUC/dose in data set [2] (setting [9]) is reported as 184.7 ± 22.7 (4) hr × ng × kg/mL × mg. Moreover, the solubility (as a rule, the dissolved amount per volume that the medium holds) is recorded as “Gel” in data set [4] (Demi-Water (pH 7.8), 24 h); “turned into gets” in data set [4] (Demi-Water (pH 7.8), 24 h, listed as tromethamine salt); “Gel” in data set [4] (FaSSIF (pH 6.5), 30 min); “Gel” in data set [4] (FaSSIF (pH 6.5), 24 h); “Gel” in data set [4] (FeSSIF (pH 5.0), 30 min); “Gel” in data set [4] (FeSSIF (pH 5.0), 24 h). Besides, the solubility result in data set [4] (PBS pH 7.4, 24 h) was “Gel”; in data set [4] (Phosphate buffer pH 6.5, 30 min), “Gel”; in data set [4] (Phosphate buffer pH 6.5, 24 h) it was “Gel”; in data set [4] (Phosphate buffer pH 7.0, 24 h), “Gel”; in data set [6] (XRPD: Crystalline) it was 32 to 95 mg/mL; in data set [6] (XRPD: Poorly crystalline), less than 11 mg/mL. Moreover, the solubility at 30 min in data set [4] (aqueous buffer, thermodynamic from solid, PBS pH 7.4, 30 min) is 23 mg/mL; in data set [4] (aqueous buffer, thermodynamic from solid, Phosphate buffer pH 7.0, 30 min), 29.4 mg/mL; in data set [4] (saline or isotonic, thermodynamic from solid, Saline pH 5.5, 30 min), 0.03 mg/mL; in data set [4] (simulated gastric fluid, thermodynamic from solid, HCl buffer pH 1.2, 30 min), 0.02 mg/mL; in data set [4] (thermodynamic from solid, Demi-Water (pH 7.8), 30 min) it was 45 mg/mL. In data set [4] (simulated gastric fluid, thermodynamic from solid, HCl buffer pH 1.2, 24 h), this compound came in with a solubility at 24 h of 0.29 mg/mL. The solubility at 2 h in data set [5] is more than 50 mg/mL. Besides, the “Dissolved (50 in g in 1) at 50° C.” value under setting [7] is “No”. The “fill weight of one 00 size capsule” value in data set [3] is 0.31 gram. Besides, the “Mass uptake (DVS)” value in data set [1] (setting [8]) is reported as 9.4% (stepwise; reversible). This compound came in with a pH of solution in data set [6] (after solubility test in water, XRPD: Crystalline) of 8.
As to 2-diethylamino-ethanol, the “salt remains in solution” value was “yes”. Further, for the setting “50° C.”, the “Dissolved (50 in g in 1) at 50° C.” value is “Yes”. The “Mass uptake (DVS)” value in data set [1] was 12.1% (stepwise; reversible).
